Measurements: patent publication US20130041005A1, “PHARMACEUTICAL COMPOSITIONS COMPRISING NEUROPILIN INHIBITORS, AND THEIR USE FOR THE PREVENTION AND/OR TREATMENT OF ANGIOGENIC DISORDERS AND CANCERS” (TRAGEX PHARMA, priority 2011, published 2013)

Legend:
U87 glioblastoma = assay: WST-1 proliferation assay, U87; type: cell-based; details: Homo sapiens; for IC50: Brain U87, 72 h, read-out: Anti-proliferative activity IC50 (μM) ± SD; for inhibition at 0.1 µM / inhibition at 0.5 µM / inhibition at 1 µM: U87 glioblastoma
Text: Several cancer cell lines were used: breast cancer cells (MDA-MB-231 (ATTCC® Number HTB-26™), MDA-MB-436 (ATTCC® Number HTB-130™), MDA-MB-438, BT-474 (ATTCC® Number HTB-20™)); cervical cancer cells (HeLa (ATTCC® Number CCL-2™)); colon cancer cells (HCT-116 (ATTCC® Number CCL-247™) and HT-29 (ATTCC® Number HTB-38™)); osteosarcoma cells (U2OS (ATTCC® Number HTB-96™)); pancreas cancer cells (MIA PaCa-2 (ATTCC® Number CRL-1420™) and Panc-10.5 (ATTCC® Number CRL-2547™)); prostate cancer cells (PC-3 (ATTCC® Number CRL-1435™) and LNCaP (ATTCC® Number CRL-1740™)); brain cancer cells (U87 glioblastoma (ATTCC® Number HTB-14™) and SH-SYSY neuroblastoma (ATTCC® Number CRL-2266™)).
(§1) All the cancer cell lines were maintained in cultured in DMEM GlutaMAX™ (GIBCO Invitrogen, France, cat no 31966047) enhanced with 10% foetal bovine serum (GIBCO Invitrogen, France, cat no 10270-106) and 1% penicillin G/streptomycin (GIBCO Invitrogen, France, cat no 15140-122). Only Panc-10.5 cells were cultivated in RPMI 1640 medium (Gibco) supplemented with 2 mM L-glutamine, 1.5 g/L sodium bicarbonate, 4.5 g/L glucose, 10 mM HEPES, 1 mM sodium pyruvate, 10 Units/ml human insulin, […] (SVF): 15% (75 ml in 500 ml of medium).
Cells were grown as subconfluent monolayer and cultured in 75 cm^2 flasks at 37° C., 5% CO2 in a humidified atmosphere, and medium was changed every two days. Only cells from passages 2-6 were used for the experiments.
After observation of cells under the microscope, old media were removed and the adherent cells washed gently twice with PBS (Phosphate Buffer Saline, —Ca^2+, —Mg^2+, Lonza cat no: 17-512F/12). All cells were detached with 3 ml of trypsin/EDTA (chelator of calcium and magnesium ions) (Lonza), incubated for 5 min at 37° C., and examined using a microscope to ensure that the cells were detached and floating. Then, 3 ml TNS (Trypsin Neutralizing Solution, Lonza, France, cat no CC-5002) or of culture medium were added to inactivate the trypsin, and the cell suspension was transferred in a falcon and centrifuged for 7 min at 1400 rpm. The supernatant was removed and the cell pellet resuspended in […] of culture medium. 50 μl of this solution were transferred in 20 μl of isotonic solution and the cells were counted by count cellular (Beckman Coulter). At day 0, 200 μl of cellular suspension (3.10^3 cells/well for the HUVEC cells, breast cancer cells (MDA-MB-231 1.10^4 cells/well, MDA-MB-436 1.10^4 cells/well, MDA-MB-438 2.10^4 cells/well, BT-474 2.5.10^4 cells/well); cervical cancer cells (HeLa 5.000 cells/well); colon cancer cells (HCT-116 5.10^3 cells/well, HCT-29 1.1.10^4 cells/well); osteosarcoma cells (U2OS 8.10^3 cells/well); pancreas cancer cells (MIA PaCa-2 5.10^3 cells/well, Panc-10.5 1.5.10^4 cells/well); prostate cancer cells (PC-3 4.10^3 cells/well, LNCaP 2.10^4 cells/well); brain cancer cells (U87 5.10^3 cells/well, SH-SYSY 8.10^4 cells/well)) were then plated on 96 well plates and incubated at 37° C. in a humidified atmosphere of 5% CO2 for 24 h.
At day 1, the compounds 1 or 2 of the invention were added at increasing concentrations (0.1-10 μM) in the wells and plates were incubated at 37° C. in a humidified atmosphere of 5% CO2 for 72 h.
The cell proliferation WST-1 assay is a colorimetric assay for the quantification of cell proliferation and viability, based on the enzymatic cleavage of the tetrazolium salt WST-1 added to the culture medium, to a water soluble colored formazan dye, detected by absorbance at 450 nm, by mitochondrial succinate-tetrazolium reductase in viable cells. An augmentation in enzyme activity will then lead to an increase in the amount of formazan dye formed, which directly correlates to the number of metabolically active cells in the culture.
After an incubation period of 72 h, at day 4, were prepared the 19 ml medium with reagent WST-1 1 ml ([…]). The medium was removed from the 96 microplate and 200 μl of solution WST-1/medium were added for each well. […]

NCI-H460 = assay: WST-1 proliferation assay, NCI-H460; type: cell-based; details: Homo sapiens; Lung NCI-H460; read-out: Anti-proliferative activity IC50 (μM) ± SD
Experimental: as §1
(§2) Cells were grown as subconfluent monolayer and cultured in 75 cm^2 flasks at 37° C., 5% CO2 in a humidified atmosphere, and medium was changed every two days. […]
(§3) The cell proliferation WST-1 assay is a colorimetric assay for the quantification of cell proliferation and viability, based on the enzymatic cleavage of the tetrazolium salt WST-1 added to the culture medium, to a water soluble colored formazan dye, detected by absorbance at 450 nm, by mitochondrial succinate-tetrazolium reductase in viable cells. […]
(§4) After an incubation period of 72 h, at day 4, were prepared the 19 ml medium with reagent WST-1 1 ml ([…]). […] The cells were incubated at 37° C. in a humidified atmosphere of 5% CO2 for 1 h 30 and the absorbance at 450-655 nm was measured by Microplate Manager 5.2 (Bio-Rad).

KMS-II = assay: WST-1 proliferation assay, KMS-II; type: cell-based; details: Homo sapiens; Myeloma KMS-II; read-out: Anti-proliferative activity IC50 (μM) ± SD
Experimental: as §1, §2, §3, §4

[1] = test system: breast cancer cells (MDA-MB-231); assay: Motility assay (videomicroscopy), MDA-MB-231; type: cell-based, Human; details: IC50 concentration, 24 h (FIG. 6)
Experimental: The dishes were placed in an enclosed warming incubator on the motorized stage of a computer-controlled Eclipse Ti inverted microscope (Nikon Instruments Europe) equipped with a CCD Cool-SNAP HQ2 camera (Roper Scientific, USA) and a PC workstation. The incubator allowed samples to be kept at 37° C. in a humidified atmosphere containing 5% CO2, 95% air. Phase images were recorded at 100× every 5 min simultaneously over several fields from 0 till 24 h (288 frames). Cell motility was tracked and analyzed for at least 25 cells in each field over three independent experiments. The total distance of migration and the speed of migration were analyzed. The degree of persistence of movement was defined as the ratio between the linear distance and the total distance covered by the cells. Image acquisition and analyses were carried out using Metamorph 7 software (Universal Imaging).

| SMILES | IC50 (U87 glioblastoma) | inhibition at 0.1 µM (U87 glioblastoma) | inhibition at 0.5 µM (U87 glioblastoma) | inhibition at 1 µM (U87 glioblastoma) | IC50 (NCI-H460) | IC50 (KMS-II) | motility (migration speed) of cancer cells [1] |
| --- | --- | --- | --- | --- | --- | --- | --- |
| Cc1ccc(-c2nc3ccccc3[nH]2)cc1NC(=S)NC(=O)c1ccc2c(c1)OCCO2 [Compound 1, N-[5-(1H-benzimidazol-2-yl)-2-methylphenyl]-N′-(2,3-dihydro-1,4-benzodioxin-6-ylcarbonyl)thiourea] | 1 µM | 0% | 45% | 54% | 0.5 ± 0.09 µM | 2.3 ± 0.01 µM | significant anti-migratory effect |
| O=C(NC(=S)Nc1cccc(-c2nc3ccccc3[nH]2)c1)c1ccc2c(c1)OCCO2 [Compound 2, N-[3-(1H-benzimidazol-2-yl)phenyl]-N′-(2,3-dihydro-1,4-benzodioxin-6-ylcarbonyl)thiourea] | 0.3 ± 0.02 µM | 44% | 60% | 61% | 0.3 ± 0.04 µM | 1.8 ± 0.02 µM | significant anti-migratory effect |
